Assay results: publication PMC7728077, “Double-Headed Cationic Lipopeptides: An Emerging Class of Antimicrobials” (International Journal of Molecular Sciences, 2020)
≈ marks a conversion by molar mass, not a printed value. Square brackets hold non-standard residues; d marks the D form. Peptide text beside a SMILES is read from it. * marks the point of attachment. Palmitoyl = CCCCCCCCCCCCCCCC(=O)*; Orn = NCCC[C@H](N)C(=O)O; Dab = NCC[C@H](N)C(=O)O; Dap = NC[C@H](N)C(=O)O

Assays:
[1] = tested on: 46BR.1N human skin fibroblasts cell line; format: cell-based
Description: (§1) Cytotoxicity was determined towards immortalized human HaCaT keratinocytes (DKFZ, Heidelberg, Germany), transformed human fibroblast cell line 46BR.1N (ECACC), as well as the human melanoma (A375), human lung cancer (A549), human colon cancer (HCT-116), human colon adenocarcinoma (HT-29), and human prostate cancer (LNCaP) cell lines. Keratinocytes and fibroblast cell lines were maintained in a humidified atmosphere with 5% CO2 at 37 °C in a Dulbecco’s modified Eagle’s medium (DMEM) (Sigma-Aldrich, Steinheim, Germany), which contained 4500 mg/L of glucose, 584 mg/L of L-glutamine, sodium pyruvate, and sodium bicarbonate. Additionally, the medium was supplemented with 10% of fetal bovine serum (FBS) (Sigma-Aldrich, Steinheim, Germany), 100 U/mL of penicillin, and 100 µg/mL of streptomycin (Sigma-Aldrich, Steinheim, Germany). The cells were grown in culture dishes (BD, Franklin Lakes, NJ, USA) and the medium was changed every 2 days. Afterwards, the fibroblasts and keratinocytes were harvested using a standard trypsin-EDTA solution, centrifuged, suspended in a medium supplemented with 10% FBS and seeded at a density of 5500–6000 cells per well into 96-well plates. After 24 h, the medium was exchanged with a serum- and antibiotic-free DMEM. The next day, serially diluted solutions of the lipopeptides prepared in a fresh FBS- and antibiotic-free medium were added to the wells. The potential cytotoxic effect of the compounds was analyzed over the concentration range of 1–25 µg/mL. After addition of the lipopeptides, cells were incubated for the next 24 h. At the end of the experiment, the cells were treated with 20 µL of MTT (5 mg/mL in PBS). After 3 h at 37 °C under 5% CO2, the medium was discarded and replaced by 6 mM HCl in isopropanol. As soon as the purple crystals of formazan were completely solubilized, absorbance was read at 570 nm with a plate reader. The optical density of the wells without the tested compounds were regarded as the positive control. The MTT assay was performed in triplicate for each cell line.
(§2) Determination of the half-maximum inhibitory concentrations (IC50) was done using GraphPad Prism 5 software (San Diego, CA, USA) based on the dose-response curves. The logarithm of the different concentrations of compounds was plotted against the percentage of inhibition in cell viability as compared with control probes, treated as 100%.

[2] = tested on: HaCaT human keratinocyte cell line; format: cell-based
Description: as §1, §2

[3] = tested on: Escherichia coli ATCC 25922; format: cell-based; conditions: ATCC 25922, 18 h
Description: (§3) Fmoc-Lys(Boc)-OH and the coupling reagents were purchased from GL Biochem (Shanghai, China). Palmitoyl Fmoc-amino acids: Fmoc-Lys(C16)-OH, Fmoc-Orn(C16)-OH, Fmoc-Dab(C16)-OH, and Fmoc-Dap(C16)-OH were acquired from Iris Biotech GmbH (Marktredwitz, Germany). The resin and solvents were purchases from Rapp Polymere (Tübingen, Germany), Merck (Darmstadt, Germany), and Avantor Performance Materials (Gliwice, Poland), respectively. The phospholipids, 1,2-dipalmitoyl-sn-glycero-3-phosphocholine (DPPC), 1,2-dipalmitoyl-sn-glycero-3-[phospho-rac-(1-glycerol)] (DPPG), 1-palmitoyl-2-oleoyl-glycero-3-phosphocholine (POPC) and 1-palmitoyl-2-oleoyl-sn-glycero-3-[phospho-rac-(1-glycerol)] (POPG), were purchased from Avanti Polar Lipids (Alabaster, AL, USA). LPS E. coli 055:B5 and phosphate buffered saline (PBS) were from Sigma-Aldrich (Steinheim, Germany). The Mueller Hinton broth was bought from BIOCORP (Warsaw, Poland) and the RPMI-1640 medium from Sigma-Aldrich (Steinheim, Germany). LIVE/DEAD™ BacLight™ Bacterial Viability Kit was obtained from Thermo Fisher Scientific (Waltham, MA, USA). Bacterial strains (Escherichia coli ATCC 25922, Pseudomonas aeruginosa ATCC 9027, Staphylococcus aureus ATCC 25923, Staphylococcus epidermidis ATCC 1922) and the fungal strain (Candida albicans ATCC 10231) were obtained from the Polish Collection of Microorganisms, Polish Academy of Science, Institute of Immunology and Experimental Therapy, Wroclaw, Poland.
(§4) Antimicrobial activity of the lipopeptides was determined according to the broth microdilution guidelines recommended by the Clinical and Laboratory Standards Institute (CLSI). Minimum inhibitory concentrations (MICs) were assumed as the lowest concentration of the peptide solution, at which the visible growth of microorganisms was inhibited. MIC values of lipopeptides against bacteria were evaluated in the Mueller–Hinton broth and against fungus in the RPMI-1640 medium. Initial inoculums of bacteria and fungus (with concentrations of 5 × 10^5 CFU/mL and 2 × 10^3 CFU/mL, respectively) were exposed to increasing concentrations of lipopeptides solutions over the range of 1–512 µg/mL. […] The 96-well plates filled with appropriate inoculums and the tested compounds were incubated for 18 h at 37 °C. Presented values are the mean of the results obtained in three independent experiments.

[4] = tested on: Staphylococcus epidermidis ATCC 1922; format: cell-based; conditions: ATCC 1922, 18 h
Description: as §3, §4

[5] = tested on: Staphylococcus aureus ATCC 25923; format: cell-based; conditions: ATCC 25923, 18 h
Description: as §3, §4

[6] = tested on: Pseudomonas aeruginosa ATCC 9027; format: cell-based; conditions: ATCC 9027, 18 h
Description: as §3, §4

[7] = tested on: Candida albicans ATCC 10231; format: cell-based; conditions: ATCC 10231, 18 h
Description: as §3, §4

[8] = tested on: MCF-7 breast cancer cell line; format: cell-based, human
[9] = tested on: LNCaP human prostate carcinoma; format: cell-based
Description: (§5) In the case of evaluation of cytotoxicity towards different types of the cancer cell lines (A375, A549, HCT-116, HT-29, and LNCaP, respective cells were seeded in 96-well plates (4500 cell/well) in the RPMI-1640 medium supplemented with 5% FBS without antibiotics and incubated for 24 h before stimulation with the lipopeptides. The next day, the cells were exposed to the effect of the serially diluted compounds added at concentrations ranging from 1 to 25 µg/mL for a period of 48 h. After the treatment, cells viability was evaluated by means of MTT assays, according to standard protocol, as just described. The experiment was repeated three times for each cell line.
as §2

[10] = tested on: HT-29 human colorectal adenocarcinoma; format: cell-based
Description: as §5, §2

[11] = tested on: HCT-116 human colorectal carcinoma; format: cell-based
Description: as §5, §2

[12] = tested on: A549 human epithelial lung carcinoma; format: cell-based
Description: as §5, §2

[13] = tested on: A375 human malignant melanoma cell line; format: cell-based
Description: as §5, §2

[14] = literature value used for comparison; cited from earlier work
Description: As expected, the critical aggregation concentration (CAC) values increased in the homologue series, i.e., Lys, Orn, Dab, and Dap, with a linear relationship of log CAC vs. number of methylene groups in the side chain of palmitoylated residue (Figure S3, Supplementary Materials). […] The modification of the acyl chain position separated the posi ...

[15] = Analytical RP-HPLC retention time as measure of hydrophobicity; format: physicochemical; conditions: Jupiter 4 µ Proteo 90 Å 250 x 4.60 mm, linear gradient 15-90% B in A in 30 min, 1 ml/min, A 0.1% aqueous TFA, B 80% acetonitrile in water with 0.1% TFA
Description: The lipopeptides were purified in a Waters RP-HPLC preparative system (Jupiter 4 µ Proteo column, 90 Å, 250 × 10 mm) with the linear gradient of solution B in A from 30% to 60% (A, 0.1% solution of TFA in water and B, 80% solution of ACN in water containing 0.1% of TFA) in 40 min with a flow rate of 5 mL/min. Final purity of the analogues (at least 97%) was determined using an analytical RP-HPLC Shimadzu system (Jupiter 4 µ Proteo column, 90 Å, 250 × 4.60 mm) with the linear gradient of solution B in A from 15% to 90% in 30 min with a flow rate of 1 mL/min. Identity of lipopeptides was confirmed by MALDI-TOF mass spectrometry. Analytical data of the synthesized analogues are presented in Table S1 (Supplementary Materials). ^a linear gradient 15-90% of B in A for 30 min, flow rate 1 ml/min, RP-HPLC Shimadzu system, column: Jupiter 4 µ Proteo, 90 Å, 250 x 4.60 mm; A – 0.1% aqueous TFA solution, B – 80% solution of acetonitrile in water with 0.1% of TFA; ^b molecular masses were determined using MALDI-TOF mass spectrometer.

CCCCCCCCCCCCCCCC(=O)NC[C@H](NC(=O)[C@@H](N)CCCCN)C(=O)N[C@@H](CCCCN)C(N)=O [K(DapC16)K-NH2] (H-Lys-[Dap](Palmitoyl)-Lys-NH2)
IC50, 46BR.1N (24h) [1]: 8.68 ± 1.00 µg/mL (≈ 14.5 µM) | IC50, HaCaT (24h) [2]: 7.25 ± 2.18 µg/mL (≈ 12.1 µM) | MIC, E. coli [3]: 8 µg/mL (≈ 13.4 µM) | MIC, S. epidermidis [4]: 4 µg/mL (≈ 6.69 µM) | MIC, S. aureus [5]: 8 µg/mL (≈ 13.4 µM) | MIC, P. aeruginosa [6]: 8 µg/mL (≈ 13.4 µM) | MIC, C. albicans [7]: 16 µg/mL (≈ 26.8 µM) | IC50, MCF-7 (48h) [8]: 20.11 ± 2.51 µg/mL (≈ 33.6 µM) | IC50, LNCaP (48h) [9]: 14.0 ± 0.41 µg/mL (≈ 23.4 µM) | IC50, HT-29 (48h) [10]: 20.24 ± 0.81 µg/mL (≈ 33.9 µM) | IC50, HCT-116 (48h) [11]: 14.90 ± 0.30 µg/mL (≈ 24.9 µM) | IC50, A549 (48h) [12]: >25 µg/mL | IC50, A375 (48h) [13]: 11.63 ± 0.26 µg/mL (≈ 19.5 µM)

C16-KKK-NH2 [Peptide C16-KKK-NH2]
CAC of N-terminally palmitoylated peptide [14]: 4.8 mM

CCCCCCCCCCCCCCCC(=O)NC[C@H](NC(=O)[C@H](CCCCN)NC(=O)[C@@H](N)CCCCN)C(=O)N[C@@H](CCCCN)C(=O)N[C@@H](CCCCN)C(N)=O [KK(DapC16)KK-NH2] (H-KK[Dap](Palmitoyl)KK-NH2)
IC50, 46BR.1N (24h) [1]: 12.77 ± 1.32 µg/mL (≈ 14.9 µM) | MIC, E. coli [3]: 8 µg/mL (≈ 9.37 µM) | MIC, S. epidermidis [4]: 8 µg/mL (≈ 9.37 µM) | MIC, S. aureus [5]: 4 µg/mL (≈ 4.68 µM) | MIC, P. aeruginosa [6]: 32 µg/mL (≈ 37.5 µM) | MIC, C. albicans [7]: 256 µg/mL (≈ 300 µM) | IC50, MCF-7 (48h) [8]: >25 µg/mL | IC50, LNCaP (48h) [9]: >25 µg/mL | IC50, HT-29 (48h) [10]: 24.68 ± 0.49 µg/mL (≈ 28.9 µM) | IC50, HCT-116 (48h) [11]: 23.05 ± 0.92 µg/mL (≈ 27 µM) | IC50, A549 (48h) [12]: >25 µg/mL | IC50, A375 (48h) [13]: >25 µg/mL

CCCCCCCCCCCCCCCC(=O)NCC[C@H](NC(=O)[C@H](CCCCN)NC(=O)[C@@H](N)CCCCN)C(=O)N[C@@H](CCCCN)C(=O)N[C@@H](CCCCN)C(N)=O [KK(DabC16)KK-NH2] (H-KK[Dab](Palmitoyl)KK-NH2)
IC50, 46BR.1N (24h) [1]: 9.45 ± 2.13 µg/mL (≈ 10.9 µM) | IC50, HaCaT (24h) [2]: 16.95 ± 1.43 µg/mL (≈ 19.5 µM) | MIC, E. coli [3]: 8 µg/mL (≈ 9.21 µM) | MIC, S. epidermidis [4]: 8 µg/mL (≈ 9.21 µM) | MIC, S. aureus [5]: 4 µg/mL (≈ 4.61 µM) | MIC, P. aeruginosa [6]: 32 µg/mL (≈ 36.9 µM) | MIC, C. albicans [7]: 32 µg/mL (≈ 36.9 µM) | IC50, MCF-7 (48h) [8]: >25 µg/mL | IC50, LNCaP (48h) [9]: >25 µg/mL | IC50, HT-29 (48h) [10]: 20.75 ± 0.42 µg/mL (≈ 23.9 µM) | IC50, HCT-116 (48h) [11]: 16.74 ± 0.33 µg/mL (≈ 19.3 µM) | IC50, A549 (48h) [12]: >25 µg/mL | IC50, A375 (48h) [13]: >25 µg/mL

CCCCCCCCCCCCCCCC(=O)NCCC[C@H](NC(=O)[C@H](CCCCN)NC(=O)[C@@H](N)CCCCN)C(=O)N[C@@H](CCCCN)C(=O)N[C@@H](CCCCN)C(N)=O [KK(OC16)KK-NH2] (H-KK[Orn](Palmitoyl)KK-NH2)
IC50, 46BR.1N (24h) [1]: 8.21 ± 1.12 µg/mL (≈ 9.31 µM) | IC50, HaCaT (24h) [2]: 16.65 ± 2.29 µg/mL (≈ 18.9 µM) | MIC, E. coli [3]: 8 µg/mL (≈ 9.07 µM) | MIC, S. epidermidis [4]: 4 µg/mL (≈ 4.53 µM) | MIC, S. aureus [5]: 8 µg/mL (≈ 9.07 µM) | MIC, P. aeruginosa [6]: 32 µg/mL (≈ 36.3 µM) | MIC, C. albicans [7]: 32 µg/mL (≈ 36.3 µM) | IC50, MCF-7 (48h) [8]: >25 µg/mL | Retention time (used as measure of hydrophobicity) [15]: 21.328 min | IC50, LNCaP (48h) [9]: >25 µg/mL | IC50, HT-29 (48h) [10]: 19.36 ± 0.58 µg/mL (≈ 21.9 µM) | IC50, HCT-116 (48h) [11]: 14.90 ± 0.75 µg/mL (≈ 16.9 µM) | IC50, A549 (48h) [12]: >25 µg/mL | IC50, A375 (48h) [13]: >25 µg/mL
